# Legend:
# [1] = Inhibition of human coronary artery smooth muscle cells (SMC's) proliferation, induced by platelet-derived growth factor (PDGF-BB) 20 ng mL.; type: functional
# [2] = Evaluated for inhibition of proliferation of human coronary artery endothelial cells (ECs), induced by 5 % FBS.; type: functional, cell-based; details: Endothelial cell
# [3] = Ratio of inhibitory activity on proliferation of human coronary artery smooth muscle cells to that of human coronary artery endothelial cells; type: functional, Endothelial cell
SMILES,IC50 [1] [nM],IC50 [2] [nM],Ratio [3]
COc1cc(C(=O)Nc2ccc(Cl)cc2C(N)=O)cc(OC)c1OC,> 2000,–,–
CCOC(=O)c1ccccc1NC(=O)/C=C/c1ccc(OC)c(OC)c1,> 50000,9500,–
CCOC(=O)c1cc(OC)c(OC)cc1NC(=O)c1cc(OC(C)=O)c(OC(C)=O)c(OC(C)=O)c1,> 2000,–,–
COc1cc(C(=O)Nc2cc(C)ccc2C(N)=O)cc(OC)c1OC,> 2000,–,–
COc1cc(C(=O)Nc2cc([N+](=O)[O-])ccc2C(N)=O)cc(OC)c1OC,1600,< 2000,–
CCOC(=O)c1cc(OC)c(OC)cc1NC(=O)c1ccc(OC(C)=O)c(OC(C)=O)c1,2200,–,–
CCOC(=O)c1cc(OC)c(OC)cc1NC(=O)c1ccc(O)c(N)c1,> 2000,–,–
COc1ccc(C(=O)Nc2cc(OC)c(OC)cc2C(=O)O)cc1OC,> 2000,–,–
COc1cc(C(=O)Nc2ccccc2C(N)=O)cc(OC)c1OC,> 2000,–,–
CCOC(=O)c1cc(OC)c(OC)cc1NC(=O)c1ccc(OC(C)=O)c(OC)c1,2800,–,–
COc1ccc(C(=O)Nc2cc(OC)c(OC)cc2C(N)=O)cc1OC,720,> 10000,>14
CCOC(=O)c1cc(OC)c(OC)cc1NC(=O)c1ccc(OC)cc1,610,< 2000,–
COc1ccc(NC(=O)c2ccc(OC)c(OC)c2)cc1OC,> 2000,–,–
CNC(=O)c1cc(OC)c(OC)cc1NC(=O)c1ccc(OC)c(OC)c1,> 2000,–,–
CCOC(=O)c1cc(OC)c(OC)cc1NC(=O)c1ccccc1OC,800,3800,5
CCOC(=O)c1cc(OC)c(OC)cc1NC(=O)c1ccc(OC)c(OC)c1,850,6000,7
COc1cc(C(=O)Nc2cc(N)ccc2C(N)=O)cc(OC)c1OC,> 2000,–,–
COc1ccc(C(=O)Nc2cc(OC)c(OC)cc2C(=O)N(C)C)cc1OC,> 2000,–,–
COc1ccc(C(=O)Nc2cc(OC)c(OC)cc2C#N)cc1OC,> 2000,–,–
COc1cc(C(=O)Nc2cc(F)c(F)cc2C(N)=O)cc(OC)c1OC,2000,> 10000,>5
CCOC(=O)c1cc(OC)c(OC)cc1NC(=O)c1ccc(OC(C)=O)cc1,1300,5200,4
CCOC(=O)c1cc(OC)c(OC)cc1NC(=O)c1ccc(OC)c(OC)c1OC,410,2900,7
CCOC(=O)c1cc(OC)c(OC)cc1NC(=O)c1cc(OC)c(OC)c(OC)c1,310,4600,15
CCOC(=O)c1cc(OC)c(OC)cc1NC(=O)c1ccc(O)c([N+](=O)[O-])c1,1800,7200,4
COc1ccc(/C=C/C(=O)Nc2ccccc2C(N)=O)cc1OC,16700,34500,2
CCOC(=O)c1cc(OC)c(OC)cc1NC(=O)c1cc(OC)c(OC(C)=O)c(OC)c1,3100,–,–
CCOC(=O)c1cc(OC)c(OC)cc1NC(=O)c1cccc(OC)c1,1600,6100,4
CCOC(=O)c1cc(OC)c(OC)cc1NC(=O)Cc1ccc(OC)c(OC)c1,800,4700,6
CCOC(=O)c1cc(OC)c(OC)cc1NC(=O)/C=C\c1ccc(OC)c(OC)c1,1200,4100,4
COc1ccc(/C=C/C(=O)Nc2ccccc2C(=O)O)cc1OC [TRANILAST],24500,19100,0.8
